According to ChEMBL document CHEMBL1743201, “Casarett and Doull's Toxicology The Basic Science of Poisons, 7th edition” (2008):
Blank lines part the entries; values can stand above or below the molecule they belong to.

How the values were obtained:
[1] = target: T1, Aryl hydrocarbon receptor (Homo sapiens, UniProt P35869); test: Aryl hydrocarbon receptor antagonist (species not specified)
T1 sequence (P35869 whole entry): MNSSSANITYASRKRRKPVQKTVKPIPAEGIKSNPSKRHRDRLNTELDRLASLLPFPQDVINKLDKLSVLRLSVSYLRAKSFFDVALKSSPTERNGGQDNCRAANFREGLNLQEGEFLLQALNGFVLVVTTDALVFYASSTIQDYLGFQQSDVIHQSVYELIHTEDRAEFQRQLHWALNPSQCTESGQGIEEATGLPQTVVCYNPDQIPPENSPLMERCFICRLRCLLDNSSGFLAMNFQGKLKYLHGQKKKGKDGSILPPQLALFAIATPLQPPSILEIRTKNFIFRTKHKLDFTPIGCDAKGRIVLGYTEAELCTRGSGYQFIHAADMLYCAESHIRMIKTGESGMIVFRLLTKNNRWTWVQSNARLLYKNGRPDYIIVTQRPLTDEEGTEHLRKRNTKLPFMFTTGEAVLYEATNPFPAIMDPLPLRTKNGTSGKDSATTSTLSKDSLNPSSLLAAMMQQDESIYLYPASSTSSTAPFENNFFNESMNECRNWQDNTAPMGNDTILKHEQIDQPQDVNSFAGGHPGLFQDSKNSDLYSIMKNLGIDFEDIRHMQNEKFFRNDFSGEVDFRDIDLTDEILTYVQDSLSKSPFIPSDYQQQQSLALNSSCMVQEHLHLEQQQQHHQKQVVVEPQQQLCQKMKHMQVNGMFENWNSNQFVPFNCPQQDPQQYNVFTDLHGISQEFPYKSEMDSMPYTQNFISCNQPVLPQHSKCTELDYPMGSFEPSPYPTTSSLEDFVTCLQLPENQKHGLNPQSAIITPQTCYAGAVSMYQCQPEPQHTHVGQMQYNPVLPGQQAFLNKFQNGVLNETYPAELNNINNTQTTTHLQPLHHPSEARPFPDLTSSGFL

Sulfotransferase 1C2 = Sulfotransferase 1C2 (Homo sapiens, UniProt O00338); test: Major substrate of human cytosolic sulfotransferase SULT1C2; type: ADME
Sequence of Sulfotransferase 1C2 (O00338 whole entry): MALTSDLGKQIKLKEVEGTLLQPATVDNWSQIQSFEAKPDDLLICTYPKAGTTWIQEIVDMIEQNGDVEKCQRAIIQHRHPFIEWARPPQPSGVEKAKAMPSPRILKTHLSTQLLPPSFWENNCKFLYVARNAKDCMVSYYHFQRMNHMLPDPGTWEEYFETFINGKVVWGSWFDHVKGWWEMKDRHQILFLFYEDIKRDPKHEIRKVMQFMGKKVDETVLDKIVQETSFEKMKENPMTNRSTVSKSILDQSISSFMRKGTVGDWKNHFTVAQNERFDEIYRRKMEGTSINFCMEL

Sulfotransferase 1C4 = Sulfotransferase 1C4 (Homo sapiens, UniProt O75897); test: Major substrate of human cytosolic sulfotransferase SULT1C4; type: ADME
Sequence of Sulfotransferase 1C4 (O75897 whole entry): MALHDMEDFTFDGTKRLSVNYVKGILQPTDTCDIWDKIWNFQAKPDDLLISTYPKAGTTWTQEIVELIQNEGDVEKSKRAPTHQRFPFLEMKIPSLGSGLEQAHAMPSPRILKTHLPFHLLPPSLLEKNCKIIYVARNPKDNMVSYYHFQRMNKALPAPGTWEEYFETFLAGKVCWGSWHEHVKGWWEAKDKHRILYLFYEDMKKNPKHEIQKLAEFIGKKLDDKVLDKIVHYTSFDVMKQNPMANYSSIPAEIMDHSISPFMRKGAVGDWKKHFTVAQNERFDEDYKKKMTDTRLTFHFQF

Sulfotransferase 1A2 = Sulfotransferase 1A2 (Homo sapiens, UniProt P50226); test: Major substrate of human cytosolic sulfotransferase SULT1A2; type: ADME
Sequence of Sulfotransferase 1A2 (P50226 whole entry): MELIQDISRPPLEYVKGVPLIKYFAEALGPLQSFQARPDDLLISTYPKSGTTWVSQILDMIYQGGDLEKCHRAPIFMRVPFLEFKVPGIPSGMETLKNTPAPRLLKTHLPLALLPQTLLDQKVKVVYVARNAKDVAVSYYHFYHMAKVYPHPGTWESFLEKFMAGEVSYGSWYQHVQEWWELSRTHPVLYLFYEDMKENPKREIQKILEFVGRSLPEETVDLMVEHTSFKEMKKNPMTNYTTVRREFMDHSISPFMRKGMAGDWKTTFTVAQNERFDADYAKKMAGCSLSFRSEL

[2] = target: T1, Aryl hydrocarbon receptor; test: Aryl hydrocarbon receptor agonist (species not specified)
Cytochrome P450 1A2 = target: T2, Cytochrome P450 1A2 (Homo sapiens, UniProt P05177); test: Clinically relevant inducers of human liver microsomal P450 enzymes, isoform CYP1A2; type: ADME; conditions: microsomes
T2 sequence (P05177 whole entry): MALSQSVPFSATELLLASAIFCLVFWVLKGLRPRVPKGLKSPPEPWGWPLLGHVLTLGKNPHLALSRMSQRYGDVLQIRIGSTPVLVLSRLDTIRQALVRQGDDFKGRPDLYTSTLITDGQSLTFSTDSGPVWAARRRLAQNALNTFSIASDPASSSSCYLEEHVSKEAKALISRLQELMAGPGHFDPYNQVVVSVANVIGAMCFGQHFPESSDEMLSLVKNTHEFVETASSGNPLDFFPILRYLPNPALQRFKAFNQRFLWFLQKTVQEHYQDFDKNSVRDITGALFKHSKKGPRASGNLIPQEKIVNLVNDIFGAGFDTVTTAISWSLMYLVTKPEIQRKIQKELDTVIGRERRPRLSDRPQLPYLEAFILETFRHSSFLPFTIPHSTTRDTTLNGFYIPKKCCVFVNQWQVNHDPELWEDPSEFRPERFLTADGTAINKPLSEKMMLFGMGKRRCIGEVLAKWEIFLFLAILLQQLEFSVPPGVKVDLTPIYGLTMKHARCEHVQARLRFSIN

Cytochrome P450 2E1 [3] = target: T3, Cytochrome P450 2E1 (Homo sapiens, UniProt P05181); test: Clinically relevant inducers of human liver microsomal P450 enzymes, isoform CYP2E1; type: ADME; conditions: microsomes
T3 sequence (P05181 whole entry, canonical isoform): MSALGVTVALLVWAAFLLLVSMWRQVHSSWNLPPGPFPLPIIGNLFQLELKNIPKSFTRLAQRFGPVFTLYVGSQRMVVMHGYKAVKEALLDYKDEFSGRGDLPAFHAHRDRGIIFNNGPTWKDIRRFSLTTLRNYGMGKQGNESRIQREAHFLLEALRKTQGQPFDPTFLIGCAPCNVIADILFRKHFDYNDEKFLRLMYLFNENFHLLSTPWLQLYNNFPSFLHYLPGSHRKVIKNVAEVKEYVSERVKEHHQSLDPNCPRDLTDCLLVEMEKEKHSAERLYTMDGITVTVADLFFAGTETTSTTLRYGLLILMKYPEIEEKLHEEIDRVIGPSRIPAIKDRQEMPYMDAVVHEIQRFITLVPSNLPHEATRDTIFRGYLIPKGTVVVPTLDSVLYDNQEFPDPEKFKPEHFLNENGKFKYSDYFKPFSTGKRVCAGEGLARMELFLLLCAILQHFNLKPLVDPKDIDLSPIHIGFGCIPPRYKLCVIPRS

Cytochrome P450 2A6 [4] = target: T4, Cytochrome P450 2A6 (Homo sapiens, UniProt P11509); test: Clinically relevant substrates of human liver microsomal P450 enzymes, isoform CYP2A6; type: ADME; conditions: microsomes
T4 sequence (P11509 whole entry): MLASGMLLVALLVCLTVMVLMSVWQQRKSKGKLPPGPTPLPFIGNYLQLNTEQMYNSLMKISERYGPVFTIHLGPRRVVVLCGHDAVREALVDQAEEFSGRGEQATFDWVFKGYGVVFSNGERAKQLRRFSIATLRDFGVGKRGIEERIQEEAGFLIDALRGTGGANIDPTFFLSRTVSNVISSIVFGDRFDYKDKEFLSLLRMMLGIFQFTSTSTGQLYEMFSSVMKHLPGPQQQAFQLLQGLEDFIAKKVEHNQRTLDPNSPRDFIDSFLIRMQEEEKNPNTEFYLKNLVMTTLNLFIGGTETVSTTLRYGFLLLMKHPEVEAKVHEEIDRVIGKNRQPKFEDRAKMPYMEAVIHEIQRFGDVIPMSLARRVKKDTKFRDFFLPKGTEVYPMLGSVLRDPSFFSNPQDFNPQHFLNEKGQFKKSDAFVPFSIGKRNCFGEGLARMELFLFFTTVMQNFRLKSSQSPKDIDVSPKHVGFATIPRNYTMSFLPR

Cytochrome P450 2A6 [5] = target: T4, Cytochrome P450 2A6; test: Clinically relevant inducers of human liver microsomal P450 enzymes, isoform CYP2A6; type: ADME; conditions: microsomes
Cytochrome P450 2C19 [6] = target: T5, Cytochrome P450 2C19 (Homo sapiens, UniProt P33261); test: Clinically relevant substrates of human liver microsomal P450 enzymes, isoform CYP2C19; type: ADME; conditions: microsomes
T5 sequence (P33261 whole entry, canonical isoform): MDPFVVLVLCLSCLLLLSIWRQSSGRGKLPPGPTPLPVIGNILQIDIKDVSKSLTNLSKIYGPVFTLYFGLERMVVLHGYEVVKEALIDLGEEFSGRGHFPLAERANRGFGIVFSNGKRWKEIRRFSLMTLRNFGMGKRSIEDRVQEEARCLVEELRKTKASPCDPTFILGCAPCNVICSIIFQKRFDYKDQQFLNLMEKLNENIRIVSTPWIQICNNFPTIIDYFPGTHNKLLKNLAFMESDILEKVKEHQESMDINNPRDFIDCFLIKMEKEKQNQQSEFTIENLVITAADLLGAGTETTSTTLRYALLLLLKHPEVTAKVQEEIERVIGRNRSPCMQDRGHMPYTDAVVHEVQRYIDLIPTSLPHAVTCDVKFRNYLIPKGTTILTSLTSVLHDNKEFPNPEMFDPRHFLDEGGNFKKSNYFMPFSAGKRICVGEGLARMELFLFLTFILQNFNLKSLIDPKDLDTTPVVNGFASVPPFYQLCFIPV

Cytochrome P450 2E1 [7] = target: T3, Cytochrome P450 2E1; test: Clinically relevant substrates of human liver microsomal P450 enzymes, isoform CYP2E1; type: ADME; conditions: microsomes
Sulfotransferase 1A3 = Sulfotransferase 1A3 (Homo sapiens, UniProt P0DMM9); test: Major substrate of human cytosolic sulfotransferase SULT1A3; type: ADME
Sequence of Sulfotransferase 1A3 (P0DMM9 whole entry): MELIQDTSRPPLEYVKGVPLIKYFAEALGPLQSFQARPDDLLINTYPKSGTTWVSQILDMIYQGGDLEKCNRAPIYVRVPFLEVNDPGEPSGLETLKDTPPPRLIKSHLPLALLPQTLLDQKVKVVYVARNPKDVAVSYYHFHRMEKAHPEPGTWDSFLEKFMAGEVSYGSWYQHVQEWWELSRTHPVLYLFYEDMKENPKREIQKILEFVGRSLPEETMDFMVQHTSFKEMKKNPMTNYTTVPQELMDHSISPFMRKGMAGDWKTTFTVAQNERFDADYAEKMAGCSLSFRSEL

Sulfotransferase 1B1 = Sulfotransferase 1B1 (Homo sapiens, UniProt O43704); test: Major substrate of human cytosolic sulfotransferase SULT1B1; type: ADME
Sequence of Sulfotransferase 1B1 (O43704 whole entry): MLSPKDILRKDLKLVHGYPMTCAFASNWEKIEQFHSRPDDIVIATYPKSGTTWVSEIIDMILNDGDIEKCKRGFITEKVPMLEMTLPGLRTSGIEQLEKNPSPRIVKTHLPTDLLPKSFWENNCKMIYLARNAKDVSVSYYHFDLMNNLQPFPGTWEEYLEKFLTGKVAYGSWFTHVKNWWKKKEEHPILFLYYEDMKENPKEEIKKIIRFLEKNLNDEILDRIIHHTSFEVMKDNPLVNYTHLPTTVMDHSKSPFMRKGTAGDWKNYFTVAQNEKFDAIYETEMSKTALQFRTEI

Sulfotransferase 4A1 = target: T6, Sulfotransferase 4A1 (Homo sapiens, UniProt Q9BR01); test: Major substrate of human cytosolic sulfotransferase SULT4A1_v1; type: ADME
T6 sequence (Q9BR01 whole entry): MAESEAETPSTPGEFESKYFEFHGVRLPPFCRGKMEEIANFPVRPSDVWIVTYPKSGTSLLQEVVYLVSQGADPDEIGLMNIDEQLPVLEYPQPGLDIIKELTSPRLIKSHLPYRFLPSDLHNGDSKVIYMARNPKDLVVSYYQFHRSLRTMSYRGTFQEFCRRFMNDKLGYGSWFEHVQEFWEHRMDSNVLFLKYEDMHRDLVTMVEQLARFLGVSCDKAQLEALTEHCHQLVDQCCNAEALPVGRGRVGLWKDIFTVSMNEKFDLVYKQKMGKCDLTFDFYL

Sulfotransferase 1A1 = Sulfotransferase 1A1 (Homo sapiens, UniProt P50225); test: Major substrate of human cytosolic sulfotransferase SULT1A1; type: ADME
Sequence of Sulfotransferase 1A1 (P50225 whole entry): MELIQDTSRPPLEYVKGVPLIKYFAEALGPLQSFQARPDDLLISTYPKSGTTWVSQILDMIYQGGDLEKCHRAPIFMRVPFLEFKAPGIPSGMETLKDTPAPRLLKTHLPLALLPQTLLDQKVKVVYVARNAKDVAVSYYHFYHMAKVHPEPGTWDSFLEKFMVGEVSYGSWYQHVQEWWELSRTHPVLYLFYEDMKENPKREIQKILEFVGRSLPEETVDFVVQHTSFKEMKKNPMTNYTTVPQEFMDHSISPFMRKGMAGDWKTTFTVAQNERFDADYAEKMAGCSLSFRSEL

[8] = target: T7, UDP-glucuronosyltransferase 1A6 (Homo sapiens, UniProt P19224); test: Substrate of human UDP-glucuronosyltransferase UGT1A6; type: ADME
T7 sequence (P19224 whole entry): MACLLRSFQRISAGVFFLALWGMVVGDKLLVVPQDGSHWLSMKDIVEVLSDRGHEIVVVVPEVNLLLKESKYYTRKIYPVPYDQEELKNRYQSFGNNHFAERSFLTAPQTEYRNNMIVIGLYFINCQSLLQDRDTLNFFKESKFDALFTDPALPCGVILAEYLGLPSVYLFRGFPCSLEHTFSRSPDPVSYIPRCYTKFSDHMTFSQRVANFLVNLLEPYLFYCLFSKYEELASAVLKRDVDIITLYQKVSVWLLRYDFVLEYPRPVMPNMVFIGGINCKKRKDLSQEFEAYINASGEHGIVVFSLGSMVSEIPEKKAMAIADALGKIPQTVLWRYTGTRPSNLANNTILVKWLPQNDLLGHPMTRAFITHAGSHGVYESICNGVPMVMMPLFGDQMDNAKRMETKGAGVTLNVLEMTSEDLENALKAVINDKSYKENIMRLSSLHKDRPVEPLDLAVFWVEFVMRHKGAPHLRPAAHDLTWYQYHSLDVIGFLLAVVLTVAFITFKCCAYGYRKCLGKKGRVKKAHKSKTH

Cytochrome P450 2B6 = target: T8, Cytochrome P450 2B6 (Homo sapiens, UniProt P20813); test: Clinically relevant inducers of human liver microsomal P450 enzymes, isoform CYP2B6; type: ADME; conditions: microsomes
T8 sequence (P20813 whole entry): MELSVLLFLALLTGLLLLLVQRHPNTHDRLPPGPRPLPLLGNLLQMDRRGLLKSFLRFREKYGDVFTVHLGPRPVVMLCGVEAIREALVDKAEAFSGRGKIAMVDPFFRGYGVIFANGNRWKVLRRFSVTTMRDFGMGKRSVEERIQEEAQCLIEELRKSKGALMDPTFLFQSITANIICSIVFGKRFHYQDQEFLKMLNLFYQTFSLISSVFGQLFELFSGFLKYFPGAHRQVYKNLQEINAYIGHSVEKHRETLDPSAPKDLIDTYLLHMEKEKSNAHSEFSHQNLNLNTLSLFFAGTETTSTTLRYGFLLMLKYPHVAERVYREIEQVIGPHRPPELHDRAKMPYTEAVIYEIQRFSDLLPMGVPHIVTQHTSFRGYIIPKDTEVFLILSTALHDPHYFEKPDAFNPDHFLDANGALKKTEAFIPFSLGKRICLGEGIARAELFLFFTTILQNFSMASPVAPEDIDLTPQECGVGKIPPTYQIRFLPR

Cytochrome P450 2C8 = target: T9, Cytochrome P450 2C8 (Homo sapiens, UniProt P10632); test: Clinically relevant inducers of human liver microsomal P450 enzymes, isoform CYP2C8; type: ADME; conditions: microsomes
T9 sequence (P10632 whole entry): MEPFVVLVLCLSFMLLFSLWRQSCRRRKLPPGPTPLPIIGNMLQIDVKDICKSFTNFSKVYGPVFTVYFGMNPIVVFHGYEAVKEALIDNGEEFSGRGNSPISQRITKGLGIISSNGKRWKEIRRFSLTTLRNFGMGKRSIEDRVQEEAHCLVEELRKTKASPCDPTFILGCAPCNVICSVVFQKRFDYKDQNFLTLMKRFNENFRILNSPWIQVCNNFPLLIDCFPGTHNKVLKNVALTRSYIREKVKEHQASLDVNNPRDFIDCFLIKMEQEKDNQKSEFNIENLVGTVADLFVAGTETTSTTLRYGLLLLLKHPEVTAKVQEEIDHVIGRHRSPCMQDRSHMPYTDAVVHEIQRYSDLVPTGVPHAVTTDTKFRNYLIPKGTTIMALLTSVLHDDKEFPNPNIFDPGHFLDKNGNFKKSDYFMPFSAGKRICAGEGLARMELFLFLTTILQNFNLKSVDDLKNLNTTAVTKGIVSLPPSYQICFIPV

Cytochrome P450 2C19 [9] = target: T5, Cytochrome P450 2C19; test: Clinically relevant inducers of human liver microsomal P450 enzymes, isoform CYP2C19; type: ADME; conditions: microsomes

Activity [1]: antagonist
Compound: Cc1ccccc1/N=N/c1ccc(NC(=O)c2ccnn2C)c(C)c1

Compound: CC(=O)N(O)c1ccc2c(c1)Cc1ccccc1-2
Activity (Sulfotransferase 1C2): Substrate
Activity (Sulfotransferase 1C4): Substrate
Activity (Sulfotransferase 1A2): Substrate

Compound: Clc1cc2c(cc1Cl)Oc1cc(Cl)c(Cl)cc1O2 [2,3,7,8-TETRACHLORODIBENZO-P-DIOXIN]
Activity [2]: agonist
Activity (Cytochrome P450 1A2): Inducer

Activity (Cytochrome P450 2E1 [3]): Inducer
Compound: CCO [ALCOHOL]

Activity (Cytochrome P450 2A6 [4]): Substrate
Compound: O=c1ccc2ccccc2o1 [COUMARIN]

Activity (Cytochrome P450 2A6 [5]): Inducer
Compound: C[C@@H]1C[C@H]2[C@@H]3CCC4=CC(=O)C=C[C@]4(C)[C@@]3(F)[C@@H](O)C[C@]2(C)[C@@]1(O)C(=O)CO [DEXAMETHASONE]

Activity (Cytochrome P450 2E1 [3]): Inducer
Compound: NNC(=O)c1ccncc1 [ISONIAZID]

Compound: CN1CCC[C@H]1c1cccnc1 [NICOTINE]
Activity (Cytochrome P450 2A6 [4]): Substrate

Activity [2]: agonist
Activity (Cytochrome P450 2C19 [6]): Substrate
Activity (Cytochrome P450 1A2): Inducer
Compound: COc1ccc2[nH]c([S+]([O-])Cc3ncc(C)c(OC)c3C)nc2c1 (stereo not drawn) [OMEPRAZOLE]

Compound: O=[N+]([O-])c1ccc(O)cc1 [P-NITROPHENOL]
Activity (Cytochrome P450 2E1 [7]): Substrate
Activity (Sulfotransferase 1A3): Substrate
Activity (Sulfotransferase 1B1): Substrate
Activity (Sulfotransferase 1C2): Substrate
Activity (Sulfotransferase 1C4): Substrate
Activity (Sulfotransferase 4A1): Substrate
Activity (Sulfotransferase 1A1): Substrate
Activity (Sulfotransferase 1A2): Substrate
Activity [8]: Substrate

Activity (Cytochrome P450 2A6 [5]): Inducer
Compound: c1cn[nH]c1 [PYRAZOLE]

Activity (Cytochrome P450 2B6): Inducer
Activity (Cytochrome P450 2C8): Inducer
Activity (Cytochrome P450 2C19 [9]): Inducer
Compound: CO[C@H]1/C=C/O[C@@]2(C)Oc3c(C)c(O)c4c(O)c(c(/C=N/N5CCN(C)CC5)c(O)c4c3C2=O)NC(=O)/C(C)=C\C=C\[C@H](C)[C@H](O)[C@@H](C)[C@@H](O)[C@@H](C)[C@H](OC(C)=O)[C@@H]1C [RIFAMPIN]

Activity [1]: antagonist
Compound: COc1ccc2[nH]c(SCc3ncc(C)c(OC)c3C)nc2c1 [UFIPRAZOLE]
